Experimental data taken from patent publication US7202276B2, “Use of 13-HODE as a regulator of vascular biocompatibility and an inhibitor of cell hyperplasia” (1411198 Ontario Limited, priority 2000, dated 2007).
Like-named read-outs stand apart in the source and are kept apart here.

Tests used:
[1] = test system: Sarcoma 180 tumors; settings: given orally; cited from earlier work
[2] = test system: platelet/injured VW interactions; settings: dose comparable to that used clinically; cited from earlier work
[3] = test system: intimal SMC hyperplasia; settings: 1 mg/kg/day for 7 days before VW injury, 4 weeks after VW injury; cited from earlier work
[4] = 3.2 gm daily (20 capsules) for 30 days; cited from earlier work
[5] = test system: platelet/injured VW interactions; settings: 3.2 gm daily for 30 days; cited from earlier work
[6] = stroke, myocardial infarction, transient ischemic attacks; cited from earlier work
[7] = Cell free plasma 13-HODE levels in rabbits treated orally with 13-HODE; assay type: in vivo, New Zealand white rabbits
Procedure: (§1) New Zealand white rabbits (half males/half females; 2.5–2.9 kg) were used throughout. Rabbits were treated with 100, 400 or 1000 μg/kg/day of purified 13-HODE suspended in corn oil or ethyl-eicosapentaenoic acid (EPA), or with an equivolume of either suspending vehicle (total volume 1 ml) for 7 days. Serial blood samples were collected before, during and after treatment to assess the levels of 13-HODE in plasma. On day 7, the treatments were stopped. At that time, the rabbits were anaesthetised with a combination of Atravet, Ketamine, Vetrepham and glycopyrolate, given subcutaneously. Both carotid arteries of anaesthetised rabbits were isolated between 2 temporary ligatures, first by applying the proximal ligature, then allowing the blood to drain from the segment, and then applying the distal ligature. A 24-gauge angiocath attached to tubing filled with sterile saline and connected to a pressure manometer, was inserted into the isolated segment. Then the segment was filled with the saline to a pressure of 600 mm Hg which was maintained for 5 minutes. The pressure was relieved, and the angiocath and ligatures were removed, thereby allowing for blood flow restoration. Cessation of bleeding from the needle puncture site was achieved within 3 minutes without any manual manipulation. The incisions were sutured closed with 000 proline. The rabbits were injected intramuscularly with Temgesic to minimize any pain and with 12.5 mg Baytril as an antibiotic, and then allowed to recover. This injury procedure results in endothelial denudation and the exposure of a thrombogenic surface within 1 hour of restoration of blood flow, followed by SMC proliferation and intimal hyperplasia, which plateaus at □ 4 weeks and which is sustained for ≧12 weeks (Buchanan M R, Brister S J: 1998: Buchanan M R et al. 1999).
Two, four or twelve weeks later, the rabbits were re-anaesthetised and their injured carotid arteries were again isolated. Segments of injured and uninjured carotid artery were harvested and processed histologically to assess VW hyperplasia. Other VW segments and blood samples were collected and processed for VW and plasma 13-HODE levels.

[8] = Vessel wall (VW) 13-HODE levels in rabbits treated orally with 13-HODE; assay type: in vivo, New Zealand white rabbits; settings: suspended in ethyl-EPA, all treatment levels
Procedure: as §1, with “The rabbits were injected intramuscularly with Temgesic to minimize any pain and with 12.5 mg Baytril as an antibiotic, and then allowed to recover. This injury procedure results in endothelial denudation and the exposure of a thrombogenic surface within 1 hour of restoration of blood flow, followed by SMC proliferation and intimal hyperplasia, which plateaus at □ 4 weeks and which is sustained for ≧12 weeks (Buchanan M R, Brister S J: 1998: Buchanan M R et al. 1999).” left out

[9] = test system: VW intimal hyperplasia of injured carotid arteries; test: Intimal hyperplasia after carotid artery pressure injury in rabbits; assay type: in vivo, New Zealand white rabbits; settings: 7 day course of 100 μg/kg/day, in either corn oil or ethyl-EPA, p<0.001
Procedure: as §1, with “The rabbits were injected intramuscularly with Temgesic to minimize any pain and with 12.5 mg Baytril as an antibiotic, and then allowed to recover. This injury procedure results in endothelial denudation and the exposure of a thrombogenic surface within 1 hour of restoration of blood flow, followed by SMC proliferation and intimal hyperplasia, which plateaus at □ 4 weeks and which is sustained for ≧12 weeks (Buchanan M R, Brister S J: 1998: Buchanan M R et al. 1999).” left out

[10] = Stability of 13-HODE dosage forms; assay type: physicochemical; settings: dissolved into a triglyceride oil carrier or an ester
Procedure: A real problem is presented by the fact that active daily doses of 13-HODE are in the 50 to 1,000 μg/kg/day range. […] That translates into a 7 mg/day dose for a 70 kg person. Since doses for humans are often considerably lower than doses for animals because of a weight/body surface area scaling, a daily dose of as little as 5 mg or less is really possible. Formulating an oily liquid is such small doses is a problem. It could be absorbed into tabletting materials and tabletted and coated, or micro-encapsulated by methods well known to those skilled in the art. […] Other triglyceride oils such as vegetable oil, including sunflower, safflower, soy, evening primrose, borage, coconut or palm oil, or cottonseed, rapeseed, olive, fish body or fish liver oils may all be used for this purpose. Particularly useful esters for this purpose are esters of fatty acids with 16–26 carbon atoms and one or more double bonds in the chain.

SMILES: CCCCC/C=C\C=C\C(O)CCCCCCCC(=O)O (stereo not shown) [9-HODE, 9-hydroxy-10(E)-12(Z) octadecadienoic acid]
- minimum effective dose for inhibiting the rate of tumour growth [1]: 55 mg/kg/day

SMILES: OCCN(CCO)c1nc(N2CCCCC2)c2nc(N(CCO)CCO)nc(N3CCCCC3)c2n1 [Persantine]
- decrease in platelet/injured VW interactions [2]: > 2 fold
- SMC hyperplasia [3]: inhibited

SMILES: CCCCC/C=C\C/C=C\CCCCCCCC(=O)O [linoleic acid, Octa-deca-9Z, 12Z-dienoic acid]
- increase in VW 13-HODE levels [4]: 2 fold
- decrease in platelet/injured VW interactions [5]: > 2 fold

SMILES: CC(=O)Oc1ccccc1C(=O)O [ASA]
- overall risk reduction [6]: ~25%

SMILES: CCCCCC(O)/C=C/C=C\CCCCCCCC(=O)O (stereo not shown) [13-HODE, 13-hydroxyoctadeca-9Z, 11E-dienoic acid]
- time to significantly elevated cell-free plasma 13-HODE level ([7]; 1,000 μg/kg/day oral): ≤ 3 days
- time cell-free plasma 13-HODE level remained elevated ([7]; 1,000 μg/kg/day oral, treatment stopped after 7 days): 4 weeks
- effect on plasma 13-HODE levels of increasing the dose ([7]; 1,000 μg/kg/day vs 100 μg/kg/day, corn oil): no further effect
- increase in the plasma 13-HODE levels ([7]; after 7 days of oral 100 μg/kg/day, suspended in corn oil): three-fold increase
- half life ([7]; orally administered): long half life
- oral absorption ([7]; orally administered): well absorbed
- absolute levels of plasma 13-HODE, compared with corn oil ([7]; suspended in ethyl-EPA, all treatment levels): lower in all treatment levels tested
- absolute levels of VW 13-HODE, compared with corn oil [8]: somewhat lower at all treatment levels tested
- intimal VW hyperplasia [9]: significantly inhibited
- stability of the dosage form [10]: stable without degradation
